IC50 and inhibition data for 9 compounds are collected here from patent US5834461A, “Tricyclic benzazepine vasopressin antagonists” (American Cyanamid Company, priority 1997, dated 1998).

In experiment [1] the target is T1, vasopressin V1 receptor subtype in human platelet membranes (Homo sapiens, UniProt P37288).
T1 construct: tissue Hudson Valley Blood Services; host or cells: human blood platelets (frozen platelet rich plasma)
The experiment is described as follows: Binding to Vasopressin V1 Receptor Subtype in Human Platelet Membranes. As to conditions: for IC50: human platelet V1 (*). Here is the method:
(a) Platelet Membrane Preparation:
Frozen platelet rich plasma (PRP), received from the Hudson Valley Blood Services, are thawed to room temperature. (Platelet Source: Hudson Valley Blood Services, Westchester Medical Center, Valhalla, N.Y.). The tubes containing the PRP are centrifuged at 16,000×g for 10 min. at 4° C. and the supernatant fluid discarded. The platelets resuspended in an equal volume of 50.0 mM Tris.HCl, pH 7.5 containing 120 mM NaCl and 20.0 mM EDTA. The suspension is recentrifuged at 16,000×g for 10 min. This washing step is repeated one more time. The wash discarded and the lysed pellets homogenized in low ionic strength buffer of Tris.HCl, 5.0 mM, pH 7.5 containing 5.0 mM EDTA. The homogenate is centrifuged at 39,000×g for 10 min. The resulting pellet is resuspended in Tris.HCl buffer, 70.0 mM, pH 7.5 and recentrifuged at 39,000×g for 10 min. The final pellet is resuspended in 50.0 mM Tris.HCl buffer pH 7.4 containing 120 mM NaCl and 5.0 mM KCl to give 1.0-2.0 mg protein per ml of suspension.
(b) Binding to Vasopressin V1 Receptor Subtype in Human Platelet Membranes:
In wells of a 96 well format microtiter plate, add 100 μl of 50.0 mM Tris.HCl buffer containing 0.2% BSA and a mixture of protease inhibitors (aprotinin, leupeptin etc.). Then add 20 μl of [^3 H]Ligand (Manning or Arg^8 Vasopressin), to give final concentrations ranging from 0.01 to 10.0 nM. Initiate the binding by adding 80.0 μl of platelet suspension (approx. 100 μg protein). Mix all reagents by pipetting the mixture up and down a few times. Non specific binding is measured in the presence of 1.0 μM of unlabeled ligand (Manning or Arg^8 Vasopressin). Let the mixture stand undisturbed at room temperature for ninety (90) min. Upon this time, rapidly filter off the incubate under vacuum suction over GF/B filters, using a Brandel Harvester. The radioactivity caught on the filter disks is determined by the addition of liquid scintillant and counting in a liquid scintillator.

Experiment [2] concerns the target T2, human V2 vasopressin receptor (Homo sapiens, UniProt P30518).
T2 construct: expressed in transfected cells; host or cells: mouse fibroblast cell line LV-2
The experiment is described as follows: Binding to Membranes of Mouse Fibroblast Cell Line (LV-2) Transfected with the cDNA Expressing the Human V2 Vasopressin Receptor. As to conditions: LV-2 cells. The method, then:
Flasks of 175 ml capacity, containing attached cells grown to confluence, are cleared of culture medium by aspiration. The flasks containing the attached cells are rinsed with 2×5 ml of phosphate buffered saline (PBS) and the liquid aspirated off each time. Finally, 5 ml of an enzyme free dissociation Hank's based solution (Specialty Media, Inc., Lafayette, N.J.) is added and the flasks are left undisturbed for 2 min. The content of all flasks is poured into a centrifuge tube and the cells pelleted at 300×g for 15 min. The Hank's based solution is aspirated off and the cells homogenized with a polytron at setting #6 for 10 sec in 10.0 mM Tris.HCl buffer, pH 7.4 containing 0.25M sucrose and 1.0 mM EDTA. The homogenate is centrifuged at 1500×g for 10 min to remove ghost membranes. The supernatant fluid is centrifuged at 100,000×g for 60 min to pellet the receptor protein. Upon completion, the pellet is resuspended in a small volume of 50.0 mM Tris.HCl buffer, pH 7.4. The protein content is determined by the Lowry method and the receptor membranes are suspended in 50.0 mM Tris.HCl buffer containing 0.1 mM phenylmethylsulfonylfluoride (PMSF) and 0.2% bovine serum albumin (BSA) to give 2.5 mg receptor protein per ml of suspension.
For binding experiments, the following is added in μl volume to wells of a 96 well format of a microtiter plate: 100.0 μl of 100.0 mM Tris.HCl buffer containing 0.2% heat inactivated BSA, 10.0 mM MgCl2 and a mixture of protease inhibitors: leupeptin, 1.0 mg %; aprotinin, 1.0 mg %; 1,10-phenanthroline, 2.0 mg %; trypsin inhibitor, 10.0 mg % and 0.1 mM PMSF., 20.0 μl of [^3 H] Arginine^8, vasopressin (S.A. 75.0 Ci/mmole) at 0.8 nM and the reaction initiated by the addition of 80.0 μl of tissue membranes ([…]).
The plates are left undisturbed on the bench top for 120 min to reach equilibrium. Non specific binding is assessed in the presence of 1.0 μM of unlabeled ligand, added in 20 μl volume. For test compounds, these are solubilized in 50% dimethylsulfoxide (DMSO) and added in 20.0 μl volume to a final incubation volume of 200 μl. Upon completion of binding, the content of each well is filtered off, using a Brandel® cell Harvester (Gaithersburg, Md.). The radioactivity trapped on the filter disk by the ligand-receptor complex is assessed by liquid scintillation counting in a Packard LS Counter, with an efficiency of 65% for tritium.

T2 sequence (P30518 whole entry): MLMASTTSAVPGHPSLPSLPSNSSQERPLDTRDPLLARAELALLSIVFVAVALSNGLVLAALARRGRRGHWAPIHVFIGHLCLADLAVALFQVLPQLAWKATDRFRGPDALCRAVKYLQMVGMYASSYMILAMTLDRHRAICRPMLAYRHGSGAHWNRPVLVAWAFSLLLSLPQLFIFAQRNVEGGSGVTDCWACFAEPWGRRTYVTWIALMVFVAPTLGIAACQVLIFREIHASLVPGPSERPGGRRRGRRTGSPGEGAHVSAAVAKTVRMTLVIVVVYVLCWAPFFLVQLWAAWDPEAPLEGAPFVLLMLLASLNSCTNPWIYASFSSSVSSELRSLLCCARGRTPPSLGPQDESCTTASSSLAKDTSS
T1 sequence (P37288 whole entry): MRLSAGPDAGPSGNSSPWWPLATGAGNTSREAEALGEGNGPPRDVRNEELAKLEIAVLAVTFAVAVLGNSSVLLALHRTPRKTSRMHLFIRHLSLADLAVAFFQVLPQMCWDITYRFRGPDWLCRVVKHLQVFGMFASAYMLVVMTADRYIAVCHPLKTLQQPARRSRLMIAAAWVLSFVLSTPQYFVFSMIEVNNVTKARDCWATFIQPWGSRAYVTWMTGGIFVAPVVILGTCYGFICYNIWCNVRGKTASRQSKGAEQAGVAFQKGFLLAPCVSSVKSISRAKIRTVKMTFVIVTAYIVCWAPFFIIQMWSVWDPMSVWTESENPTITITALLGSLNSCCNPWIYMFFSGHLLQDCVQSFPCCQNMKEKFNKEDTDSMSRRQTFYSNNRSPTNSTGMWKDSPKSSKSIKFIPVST

Consider `COc1cc(C(=O)N2Cc3ccccc3Cc3ccccc32)ccc1NC(=O)c1ccccc1C` [Example 257, N-[4-[(6,11-Dihydro-5H-dibenz[b,e]azepin-5-yl)-carbonyl]-2-methoxyphenyl]-2-methylbenzamide], for which the IC50 (as a rule, the midpoint of a concentration-inhibition curve) in experiment [1] turned out to be 0.016 µM; in experiment [2], 0.02 µM.

`COc1cc(C(=O)N2Cc3ccccc3Cc3ccccc32)ccc1NC(=O)c1cc(F)ccc1C` [Example 261, N-[4-[(6,11-Dihydro-5H-dibenz[b,e]azepin-5-yl)-carbonyl]-2-methoxyphenyl]-2-methyl-5-fluorobenzamide]: the IC50 in experiment [1] is 0.021 µM; in experiment [2], 0.016 µM.

In the case of `Cc1c(F)cccc1C(=O)Nc1ccc(C(=O)N2Cc3ccccc3Cc3ccccc32)cc1Cl` [Example 262, N-[4-[(6,11-Dihydro-5H-dibenz[b,e]azepin-5-yl)-carbonyl]-2-chlorophenyl]-2-methyl-3-fluorobenzamide], the values for the IC50 in experiment [1] and in experiment [2] were 0.62 µM and 0.25 µM, respectively.

With `COc1cc(C(=O)N2Cc3ccccc3Cc3ccccc32)ccc1NC(=O)c1ccc(Cl)cc1Cl` [Example 263, N-[4-[(6,11-Dihydro-5H-dibenz[b,e]azepin-5-yl)-carbonyl]-2-methoxyphenyl]-2,4-dichlorobenzamide], the results for the IC50 in experiment [1] and in experiment [2] were 0.43 µM and 0.047 µM, respectively.

`CC(C)COc1ccc([N+](=O)[O-])cc1C(=O)Nc1ccc(C(=O)N2Cc3ccccc3Cc3ccccc32)cc1` [Example 453]: the inhibition at 10 µM in experiment [1] (1.5 h, 10 μM, human platelet (*), read-out: *V1, % at concentration in brackets) was determined as 14%.

In the case of `Cc1nc2c(s1)CCN(C(=O)c1ccc(NC(=O)c3ccc(Cl)cc3Cl)cc1)c1ccccc1-2` [Example 455, N-[4-(4,5-Dihydro-2-methyl-6H-thiazolo[5,4-d][1]-benzazepin-6-yl)carbonyl1phenyl]-2,4-dichlorobenzamide], the IC50 in experiment [1] came to 0.25 µM; in experiment [2] it was 0.1 µM.

For `Cc1nc2c(s1)CCN(C(=O)c1ccc(NC(=O)c3cc(F)ccc3C)cc1)c1ccccc1-2` [Example 534], the IC50 in experiment [1] was found to be 0.09 µM; in experiment [2], 0.073 µM.

Take `Cc1ccc(F)cc1C(=O)Nc1ccc(C(=O)N2CCc3c[nH]nc3-c3ccccc32)c(Cl)c1` [Example 581]: the IC50 in experiment [1] came out at 0.15 µM; in experiment [2], 0.0022 µM.

In experiment [1], `Cc1ccc(F)cc1C(=O)Nc1ccc(C(=O)N2CCc3c[nH]nc3-c3ccccc32)cc1` [Example 584, N-[4-[(4.5-Dihydropyrazolo[4,3-d][1]benzazepin-6(2H)-yl)carbonyl]phenyl]-5-fluoro-2-methylbenzamide] displayed an IC50 of 0.028 µM.
